Laboratory results: patent US9738634B2, “Heterocyclic amide compound and herbicide” (SYNGENTA PARTICIPATIONS AG, priority 2013, dated 2017)

Key:
Format in all cases: in vivo
Conditions in all cases: treatment dosage 320 g/ha
wheat [1] = test: Test Example 4: foliar treatment, effect on crop; e: wheat
How it was run: (§1)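 Seeds are spot-sown into sterilized diluvial soil and covered with about 1.5 cm of soil. After 14 days' greenhouse growth at 25 to 30° C, plants are sprayed on stems and leaves with diluted emulsion at the stated g/ha rate, then scored at 3 weeks.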

Italian ryegrass [2] = test: Test Example 4: weedkilling efficacy by foliar treatment; I: Italian ryegrass
How it was run: as §1

fig-leafed goosefoot [3] = test: Test Example 4: weedkilling efficacy by foliar treatment; M: fig-leafed goosefoot
How it was run: as §1

common wind-grass [4] = test: Test Example 4: weedkilling efficacy by foliar treatment; J: common wind-grass
How it was run: as §1

beet [5] = test: Test Example 4: foliar treatment, effect on crop; f: beet
How it was run: as §1

bulrush [6] = test: Test Example 2: weedkilling efficacy, growth period weed treatment in the submerged state; B: bulrush
How it was run: (§2)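 Weeds treated at the 1-2 leaf stage by application of diluted emulsion onto floodwater (4 cm depth, alluvial soil) at specified g/ha. Grown in greenhouse at 25 to 30° C; herbicidal effect rated three weeks after treatment.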

crabgrass [7] = test: Test Example 4: weedkilling efficacy by foliar treatment; D: crabgrass
How it was run: as §1

Italian ryegrass [8] = test: Test Example 3: weedkilling efficacy through soil treatment; I: Italian ryegrass
How it was run: (§3)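 Crop and weed responses were judged three weeks after a uniform surface spray of the water-diluted emulsion at the given g/ha rate. Seeds sat beneath about 1.5 cm of sterilized diluvial soil, and boxes stood in a greenhouse at 25 to 30° C.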

redroot pigweed [9] = test: Test Example 3: weedkilling efficacy through soil treatment; L: redroot pigweed
How it was run: as §3

rapeseed [10] = test: Test Example 4: foliar treatment, effect on crop; g: rapeseed
How it was run: as §1

corn [11] = test: Test Example 3: soil treatment, effect on crop; c: corn
How it was run: as §3

redroot pigweed [12] = test: Test Example 4: weedkilling efficacy by foliar treatment; L: redroot pigweed
How it was run: as §1

common wind-grass [13] = test: Test Example 3: weedkilling efficacy through soil treatment; J: common wind-grass
How it was run: as §3

transplanted rice = test: Test Example 1: preemergent weed treatment in the submerged state, effect on crop; a: transplanted rice
How it was run: (§4)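 Pots of alluvial soil were flooded to a 4 cm depth. Mixed weed seeds were sown and 2.5 leaf-stage rice seedlings transplanted. On sowing day, water-diluted emulsion was applied to the water surface (dose in g/ha). After 3 weeks at 25–30 °C, effects were rated.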

green foxtail [14] = test: Test Example 3: weedkilling efficacy through soil treatment; E: green foxtail
How it was run: as §3

soybean [15] = test: Test Example 3: soil treatment, effect on crop; d: soybean
How it was run: as §3

catchweed [16] = test: Test Example 3: weedkilling efficacy through soil treatment; O: catchweed
How it was run: as §3

wheat [17] = test: Test Example 3: soil treatment, effect on crop; e: wheat
How it was run: as §3

oval-leafed pondweed [18] = test: Test Example 2: weedkilling efficacy, growth period weed treatment in the submerged state; C: oval-leafed pondweed
How it was run: as §2

barnyard grass [19] = test: Test Example 4: weedkilling efficacy by foliar treatment; F: barnyard grass
How it was run: as §1

beet [20] = test: Test Example 3: soil treatment, effect on crop; f: beet
How it was run: as §3

crabgrass [21] = test: Test Example 3: weedkilling efficacy through soil treatment; D: crabgrass
How it was run: as §3

directly sown rice [22] = test: Test Example 3: soil treatment, effect on crop; b: directly sown rice
How it was run: as §3

birds-eye speedwell [23] = test: Test Example 3: weedkilling efficacy through soil treatment; p: birds-eye speedwell
How it was run: as §3

wild oat [24] = test: Test Example 3: weedkilling efficacy through soil treatment; G: wild oat
How it was run: as §3

oval-leafed pondweed [25] = test: Test Example 1: weedkilling efficacy, preemergent weed treatment in the submerged state; C: oval-leafed pondweed
How it was run: as §4

soybean [26] = test: Test Example 4: foliar treatment, effect on crop; d: soybean
How it was run: as §1

rapeseed [27] = test: Test Example 3: soil treatment, effect on crop; g: rapeseed
How it was run: as §3

fig-leafed goosefoot [28] = test: Test Example 3: weedkilling efficacy through soil treatment; M: fig-leafed goosefoot
How it was run: as §3

corn [29] = test: Test Example 4: foliar treatment, effect on crop; c: corn
How it was run: as §1

directly sown rice [30] = test: Test Example 4: foliar treatment, effect on crop; b: directly sown rice
How it was run: as §1

green foxtail [31] = test: Test Example 4: weedkilling efficacy by foliar treatment; E: green foxtail
How it was run: as §1

bulrush [32] = test: Test Example 1: weedkilling efficacy, preemergent weed treatment in the submerged state; B: bulrush
How it was run: as §4

black-grass [33] = test: Test Example 3: weedkilling efficacy through soil treatment; H: black-grass
How it was run: as §3

barnyard grass [34] = test: Test Example 1: weedkilling efficacy, preemergent weed treatment in the submerged state; A: barnyard grass
How it was run: as §4

barnyard grass [35] = test: Test Example 3: weedkilling efficacy through soil treatment; F: barnyard grass
How it was run: as §3

black-grass [36] = test: Test Example 4: weedkilling efficacy by foliar treatment; H: black-grass
How it was run: as §1

catchweed [37] = test: Test Example 4: weedkilling efficacy by foliar treatment; O: catchweed
How it was run: as §1

barnyard grass [38] = test: Test Example 2: weedkilling efficacy, growth period weed treatment in the submerged state; A: barnyard grass
How it was run: as §2

Indian mallow [39] = test: Test Example 4: weedkilling efficacy by foliar treatment; K: Indian mallow
How it was run: as §1

wild oat [40] = test: Test Example 4: weedkilling efficacy by foliar treatment; G: wild oat
How it was run: as §1

Indian mallow [41] = test: Test Example 3: weedkilling efficacy through soil treatment; K: Indian mallow
How it was run: as §3

chickweed [42] = test: Test Example 3: weedkilling efficacy through soil treatment; N: chickweed
How it was run: as §3

chickweed [43] = test: Test Example 4: weedkilling efficacy by foliar treatment; N: chickweed
How it was run: as §1

birds-eye speedwell [44] = test: Test Example 4: weedkilling efficacy by foliar treatment; p: birds-eye speedwell
How it was run: as §1

COc1cc(C(F)(F)F)cc(NC(=O)C(C)(C)N2COC(C)=C(c3cccnc3F)C2=O)n1 [B-2-14]
e (wheat) effect on crop grade (wheat [1]): 0 (weed kill ratio 5% or less (practically no effect)) | I (Italian ryegrass) weedkilling efficacy grade (Italian ryegrass [2]): 5 (weed kill ratio 90% or more, (practically complete withering)) | M (fig-leafed goosefoot) weedkilling efficacy grade (fig-leafed goosefoot [3]): 4 (weed kill ratio 70% or more, less than 90%) | J (common wind-grass) weedkilling efficacy grade (common wind-grass [4]): 5 (weed kill ratio 90% or more, (practically complete withering)) | f (beet) effect on crop grade (beet [5]): 3 (weed kill ratio 40% or more, less than 70%) | B (bulrush) weedkilling efficacy grade (bulrush [6]): 4 (weed kill ratio 70% or more, less than 90%) | D (crabgrass) weedkilling efficacy grade (crabgrass [7]): 4 (weed kill ratio 70% or more, less than 90%) | I (Italian ryegrass) weedkilling efficacy grade (Italian ryegrass [8]): 5 (weed kill ratio 90% or more, (practically complete withering)) | L (redroot pigweed) weedkilling efficacy grade (redroot pigweed [9]): 3 (weed kill ratio 40% or more, less than 70%) | g (rapeseed) effect on crop grade (rapeseed [10]): 4 (weed kill ratio 70% or more, less than 90%) | c (corn) effect on crop grade (corn [11]): 0 (weed kill ratio 5% or less (practically no effect)) | L (redroot pigweed) weedkilling efficacy grade (redroot pigweed [12]): 4 (weed kill ratio 70% or more, less than 90%) | J (common wind-grass) weedkilling efficacy grade (common wind-grass [13]): 5 (weed kill ratio 90% or more, (practically complete withering)) | a (transplanted rice) effect on crop grade (transplanted rice): 3 (weed kill ratio 40% or more, less than 70%) | E (green foxtail) weedkilling efficacy grade (green foxtail [14]): 5 (weed kill ratio 90% or more, (practically complete withering)) | d (soybean) effect on crop grade (soybean [15]): 0 (weed kill ratio 5% or less (practically no effect)) | O (catchweed) weedkilling efficacy grade (catchweed [16]): 4 (weed kill ratio 70% or more, less than 90%) | e (wheat) effect on crop grade (wheat [17]): 0 (weed kill ratio 5% or less (practically no effect)) | C (oval-leafed pondweed) weedkilling efficacy grade (oval-leafed pondweed [18]): 4 (weed kill ratio 70% or more, less than 90%) | F (barnyard grass) weedkilling efficacy grade (barnyard grass [19]): 4 (weed kill ratio 70% or more, less than 90%) | f (beet) effect on crop grade (beet [20]): 3 (weed kill ratio 40% or more, less than 70%) | D (crabgrass) weedkilling efficacy grade (crabgrass [21]): 5 (weed kill ratio 90% or more, (practically complete withering)) | b (directly sown rice) effect on crop grade (directly sown rice [22]): 4 (weed kill ratio 70% or more, less than 90%) | P (birds-eye speedwell) weedkilling efficacy grade (birds-eye speedwell [23]): 4 (weed kill ratio 70% or more, less than 90%) | G (wild oat) weedkilling efficacy grade (wild oat [24]): 5 (weed kill ratio 90% or more, (practically complete withering)) | C (oval-leafed pondweed) weedkilling efficacy grade (oval-leafed pondweed [25]): 4 (weed kill ratio 70% or more, less than 90%) | d (soybean) effect on crop grade (soybean [26]): 3 (weed kill ratio 40% or more, less than 70%) | g (rapeseed) effect on crop grade (rapeseed [27]): 1 (weed kill ratio 5% or more, less than 20%) | M (fig-leafed goosefoot) weedkilling efficacy grade (fig-leafed goosefoot [28]): 3 (weed kill ratio 40% or more, less than 70%) | c (corn) effect on crop grade (corn [29]): 3 (weed kill ratio 40% or more, less than 70%) | b (directly sown rice) effect on crop grade (directly sown rice [30]): 3 (weed kill ratio 40% or more, less than 70%) | E (green foxtail) weedkilling efficacy grade (green foxtail [31]): 5 (weed kill ratio 90% or more, (practically complete withering)) | B (bulrush) weedkilling efficacy grade (bulrush [32]): 5 (weed kill ratio 90% or more, (practically complete withering)) | H (black-grass) weedkilling efficacy grade (black-grass [33]): 5 (weed kill ratio 90% or more, (practically complete withering)) | A (barnyard grass) weedkilling efficacy grade (barnyard grass [34]): 5 (weed kill ratio 90% or more, (practically complete withering)) | F (barnyard grass) weedkilling efficacy grade (barnyard grass [35]): 5 (weed kill ratio 90% or more, (practically complete withering)) | H (black-grass) weedkilling efficacy grade (black-grass [36]): 5 (weed kill ratio 90% or more, (practically complete withering)) | O (catchweed) weedkilling efficacy grade (catchweed [37]): 4 (weed kill ratio 70% or more, less than 90%) | A (barnyard grass) weedkilling efficacy grade (barnyard grass [38]): 4 (weed kill ratio 70% or more, less than 90%) | K (Indian mallow) weedkilling efficacy grade (Indian mallow [39]): 5 (weed kill ratio 90% or more, (practically complete withering)) | G (wild oat) weedkilling efficacy grade (wild oat [40]): 4 (weed kill ratio 70% or more, less than 90%) | K (Indian mallow) weedkilling efficacy grade (Indian mallow [41]): 0 (weed kill ratio 5% or less (practically no effect)) | N (chickweed) weedkilling efficacy grade (chickweed [42]): 3 (weed kill ratio 40% or more, less than 70%) | N (chickweed) weedkilling efficacy grade (chickweed [43]): 4 (weed kill ratio 70% or more, less than 90%) | P (birds-eye speedwell) weedkilling efficacy grade (birds-eye speedwell [44]): 4 (weed kill ratio 70% or more, less than 90%)
